Laboratory results taken from patent publication US20240287173A1, “THERAPEUTIC AGENT FOR MUSCULAR ATROPHY” (NATIONAL UNIVERSITY CORPORATION KUMAMOTO UNIVERSITY, priority 2021, published 2024).

Legend:
[1] = tested on: wild-type mouse DB model; assay: STZ-induced diabetes (DB) muscle atrophy model; assay type: in vivo; details: DAPT 10 mg/kg i.p. every other day during DB induced period
Method: (§1) Wild-type mice were used to examine the effects of inhibition of the Notch signaling pathway on muscle in vitro. Ultra-LEAF™ anti-mouse Dll4 antibody (Dll4 blocking antibody) or Ultra-LEAF™ American hamster IgG control antibody (control antibody) was administered intraperitoneally (10 mg/kg body weight) every 4 days in each experiment. Recombinant Dll4-Fc chimeric protein (rDll4) was dissolved in phosphate-buffered saline (PBS) and administered (0.5 mg/kg body weight) every two days. The γ-secretase inhibitor, DAPT, dissolved in 10% ethanol and corn oil, was administered every 2 days (10 mg/kg body weight). […]
Mice were given a single intraperitoneal injection of STZ (150 mg/kg body weight) at a level that is toxic to insulin-producing pancreatic β-cells, or an equal volume of solvent (0.1 M citrate buffer, pH 4.5) as a control was injected. Mice were monitored for hyperglycemia on day 3 using Accu-chek (Roche), and only mice that achieved casual blood glucose levels>300 mg/dl were used in the experiment. […]
(§2) Total RNA was extracted from muscle tissue, isolated myofibers, cultured cells, and freshly sorted cells using ISOGEN II and RNeasy Kit (Qiagen) according to the manufacturer's instructions. […] Quantitative PCR (qPCR) was performed using THUNDERBIRD SYBR qPCR mix (TOYOBO) and real-time PCR detection system (CFX96; Bio Rad). […]

[2] = tested on: wild-type mouse mechanical load-induced muscle hypertrophy model; assay: Mechanical overload (tenotomy)-induced muscle hypertrophy model; assay type: in vivo; details: DAPT 10 mg/kg i.p. after tenotomy, day 14, vs control mice
Method: Wild-type mice were used to examine the effects of inhibition of the Notch signaling pathway on muscle in vitro. Ultra-LEAF™ anti-mouse Dll4 antibody (Dll4 blocking antibody) or Ultra-LEAF™ American hamster IgG control antibody (control antibody) was administered intraperitoneally (10 mg/kg body weight) every 4 days in each experiment. Recombinant Dll4-Fc chimeric protein (rDll4) was dissolved in phosphate-buffered saline (PBS) and administered (0.5 mg/kg body weight) every two days. The γ-secretase inhibitor, DAPT, dissolved in 10% ethanol and corn oil, was administered every 2 days (10 mg/kg body weight). Control mice were injected intraperitoneally with an equivalent volume of vehicle in rDll4 or DAPT experiments.
Tenotomy surgery was performed on both legs of mice to induce muscle hypertrophy. In anesthetized mice, an incision was made along the midline of the calf after hair removal. […]
(§3) Isolated PLA or TA muscles were immediately frozen in liquid nitrogen-cooled 2-methylbutane and stored at −80° C. until analysis. […] Immunostained specimens were visualized using Alexa Fluor conjugated secondary antibodies and observed using fluorescence microscopy. Image-J (NIH) was used to quantify myofiber CSA from at least 500 myofibers and count the number of satellite cells per myofiber from at least 15 myofibers.

[3] = tested on: EDL myofibers derived from N2f/f mice; assay: Dll4-induced myofiber atrophy on recombinant Dll4-coated plates with γ-secretase inhibitor; assay type: cell-based, mouse; details: DAPT 10 μM, 48 hours, recombinant Dll4-coated plate
Method: Culture dishes were coated with Notch ligand recombinant protein as reported by Sakai et al. (Sakai et al., PLOS One 12, e0177516 (2017)). Culture dishes were first coated with 10 μg/ml anti-Fc antibody for 1 hour at room temperature, followed by Matrigel (Corning) for 20 minutes. Fc antibody coated dishes were incubated with 5 ng/μl of Fc fusion protein of each Notch ligand (Dll1, Dll4, Jag1 and Jag2) for 1 hour at room temperature. Individual myofibers isolated from EDL muscle were placed in serum-free DMEM and cultured in a CO2 incubator for 48 hours. DAPT (10 µM) was used to inhibit γ-secretase activity in myofibers.
Cultured myofibers were captured using fluorescence microscopy and diameters were quantified from at least 15 individual myofibers using ImageJ (NIH).
Notch, which is a transmembrane receptor, has its transmembrane domain cleaved by γ-secretase, translocates its intracellular domain to the nucleus, and functions as a transcription factor. Therefore, DAPT, a γ-secretase inhibitor, was used to test the influence of γ-secretase activity on Dll4-induced myofiber atrophy. EDL myofibers derived from N2^f/f mice were cultured for 48 hours on a plate coated previously with recombinant Dll4 protein using a medium containing a γ-secretase inhibitor DAPT (10 μM) or PBS.

[4] = tested on: wild-type mouse HU model; assay: Hindlimb unloading (HU) muscle atrophy model; assay type: in vivo; details: DAPT 10 mg/kg i.p. every other day during HU period
Method: as §1, §2, §3

Structure (SMILES): C[C@H](NC(=O)Cc1cc(F)cc(F)c1)C(=O)N[C@H](C(=O)OC(C)(C)C)c1ccccc1 [DAPT]
- muscle atrophy (muscle mass) [1]: significant suppression of muscle atrophy
- muscle hypertrophy (overload-induced PLA muscle weight gain) [2]: muscle hypertrophy was exhibited more readily
- myofiber atrophy on Dll4 stimulation (myofiber diameter) [3]: resistant to Dll4 stimulation
- muscle atrophy (muscle mass of SOL, PLA, GAS) [4]: significant suppression of muscle atrophy
